Test results as given in US6716411B2, “Method for finding nucleotide synthesis inhibitors having fewer side effects” (Aventis Pharma Deustschland GmbH, priority 1999, dated 2004).
“And” between values parts separate entries of the source, which are not always exact repeats. Equal values may be shown once. Read-outs that look alike come from different tables or passages of the source. Marks after values point to notes of the source that are not given here.

Experiments:
[1] = test system: pemphigus vulgaris; test: Observation of leflunomide treatment in humans; assay type: in vivo; conditions: rheumatoid arthritis patients treated with leflunomide
Protocol: This diarrhea adversely affected the quality of life of the patient. Because of the problems caused by this side effect, an attempt was made, after more than two years' therapy with a constant dose of 20 mg of leflunomide per day, to end the therapy.
This observation was surprising, as the active metabolite of leflunomide, compound 1, has a half-life of approximately 14 days in humans. Furthermore, in this patient the blood levels of the active metabolite of leflunomide were repeatedly determined in the relatively high range between 70 mg/l and 85 mg/l.

[2] = test system: adjuvant-induced arthritis; test: Adjuvant-induced arthritis model, dose-response relationship (Example 1); assay type: in vivo; conditions: for Increase in body weight / Reduction in arthritis score / Reduction in paw swelling / Surviving animals: day 21
Description: The dose-response relationship of N-(4-trifluoromethylphenyl)-2-cyano-3-hyroxycrotonamide, hereafter referred to as compound 1, was drawn up in the adjuvant-induced arthritis model (method of Pearson C. M. and Wood F. D.; Arth. Rheum. 2: 44 (1959), and Taurog J. D., Argentieri D. C. et al., Meth. Enzymol. 162: 339 (1988)). The swelling of the paws, the formation of generalized symptoms of arthritis, know as the score index, the increase in the body weight during the experiment, and the survival of the animals were determined.
Compound 1 was administered orally from the start of the experiment onwards up to the end on day 21 in a 1% strength carboxymethlcellulose solution, (CMC). The control groups received corresponding amounts of 1% CMC without the active compound.
Six male Lewis rats having a body weight of approximately 210 g were employed in each experimental group.
Negative numbers indicate the worsening of the respective measurement parameter.
In the adjuvant-induced arthritis model in the rat, autoimmune reactions are observed which correspond to the autoimmune diseases of the rheumatic type in humans.

[3] = Tolerability of constant (mini-infusion pump) versus pulse-like (oral) blood levels (Example 5); assay type: in vivo, rat; conditions: male, Lewis, rat, plasma, subcutaneous, read-out: Compound 1 blood plasma level (day 27)
Protocol: (§1) In order to attain constant blood levels, a mini-infusion pump was subcutaneously implanted into experimental animals. The mini-infusion pumps contained 2 ml of a 15% strength ethanolic solution of compound 1, which was continuously released over 28 days. Doses of 2.5, 5, 10 and 25 mg/kg/day were employed. For comparison, animals which received the same daily doses of the compound 1, but administered orally, were implanted with mini-infusion pumps; these, however, were filled with only the vehicle (15% ethanol in water). A 1% strength CMC was additionally administered orally to animals which received the compound 1 via mini-infusion pumps. The survival of the animals was taken as a course parameter. Additionally, blood was taken on day 5 and day 27 in order to determine the blood levels of compound 1. Blood was taken from animals 4 hours after oral administration of compound 1. The group was comprised of 6 male Lewis rats having a body weight of approximately 210 g. Corresponding to the preceding experiments, adjuvant arthritis was induced in the animals on day 5.
(§2) For the attainment of constant blood levels of compound 1, the animals were implanted subcutaneously with a mini-infusion pump which supplied compound 1 to the animals continuously for 28 days. By means of this pump, constant blood levels of compound 1 were attained. Thus long half-lives of compound 1, such as are observed in humans, were simulated.
(§3) For the comparison group, animals were treated with the identical daily dose of compound 1, but received the substance orally rather than by mini-infusion pump.
(§4) In this experiment, the tolerability of the compound 1 with a short half-life (compound 1 orally administered) was compared with the tolerability of the compound 1 with a long half-life (compound 1 by pump with a constant infinite half-life). The doses employed were 2.5 mg/kg/day, 5 mg/kg/day, 10 mg/kg/day and 25 mg/kg/day. The number of animals surviving the treatment was used as a measure of the tolerability. The tolerability was moreover compared with respect to the observed blood levels.

[4] = test system: Lewis rats; test: as above; assay type: in vivo, rat
Protocol: as §1, §2, §3, §4

C/C(O)=C(\C#N)C(=O)Nc1ccc(C(F)(F)F)cc1 [compound 1, N-(4-trifluoromethylphenyl)-2-cyano-3-hydroxycrotonamide]
blood levels of the compound 1 [1]: over 32 mg/l
therapeutic action ([2]; 1 mg/kg/day): an action could no longer be determined
Increase in body weight ([2]; 1 mg/kg/day orally): 10%
Reduction in arthritis score ([2]; 1 mg/kg/day orally): −11%
Reduction in paw swelling ([2]; 1 mg/kg/day orally): −9%
Surviving animals ([2]; 1 mg/kg/day orally): 100%
Increase in body weight ([2]; 2.5 mg/kg/day orally): 20%
Reduction in arthritis score ([2]; 2.5 mg/kg/day orally): 70%
Reduction in paw swelling ([2]; 2.5 mg/kg/day orally): 78%
Surviving animals ([2]; 2.5 mg/kg/day orally): 100%
Increase in body weight ([2]; 5 mg/kg/day orally): 37%
Reduction in arthritis score ([2]; 5 mg/kg/day orally): 83%
Reduction in paw swelling ([2]; 5 mg/kg/day orally): 96%
Increase in body weight ([2]; 7.5 mg/kg/day orally): 25%
Reduction in arthritis score ([2]; 7.5 mg/kg/day orally): 87%
Reduction in paw swelling ([2]; 7.5 mg/kg/day orally): 105%
Increase in body weight ([2]; 10 mg/kg/day orally): 11%
Reduction in arthritis score ([2]; 10 mg/kg/day orally): 84%
Reduction in paw swelling ([2]; 10 mg/kg/day orally): 96%
Increase in body weight ([2]; 15 mg/kg/day orally): 8%
Reduction in arthritis score ([2]; 15 mg/kg/day orally): 91%
Reduction in paw swelling ([2]; 15 mg/kg/day orally): 106%
Increase in body weight ([2]; 25 mg/kg/day orally): −2%
Reduction in arthritis score ([2]; 25 mg/kg/day orally): 96%
Reduction in paw swelling ([2]; 25 mg/kg/day orally): 114%
lowest efficacious dose ([2]; orally once daily, adjuvant-induced arthritis, rat): 2.5 mg/kg/day
concentration at 27 day ([3]; 2.5 mg/kg/day mini-infusion): 2340 ng/mL
concentration at 27 day ([3]; 5 mg/kg/day mini-infusion): 4180 ng/mL
concentration at 27 day ([3]; 10 mg/kg/day mini-infusion): 6720 ng/mL
Body weight increase ([4]; 2.5 mg/kg/day mini-infusion): +22%
Compound 1 blood plasma level (day 5) ([4]; 2.5 mg/kg/day mini-infusion): 2.05 μg/ml ±
Compound 1 blood plasma level (day 27) ([4]; 2.5 mg/kg/day mini-infusion): 2.34 μg/ml ±
Surviving animals ([4]; 2.5 mg/kg/day mini-infusion): 100%
Body weight increase ([4]; 2.5 mg/kg/day p.o.): +29%
Surviving animals ([4]; 2.5 mg/kg/day p.o.): 100%
Body weight increase ([4]; 5 mg/kg/day mini-infusion): +26%
Compound 1 blood plasma level (day 5) ([4]; 5 mg/kg/day mini-infusion): 3.57 μg/ml ±
Compound 1 blood plasma level (day 27) ([4]; 5 mg/kg/day mini-infusion): 4.18 μg/ml ±
Surviving animals ([4]; 5 mg/kg/day mini-infusion): 100%
Body weight increase ([4]; 5 mg/kg/day p.o.): +25%
Surviving animals ([4]; 5 mg/kg/day p.o.): 100%
Compound 1 blood plasma level (day 5) ([4]; 5 mg/kg/day p.o., 4 hours after oral administration): 14.31 µg/µg/mL
Body weight increase ([4]; 10 mg/kg/day mini-infusion): +29%
Compound 1 blood plasma level (day 5) ([4]; 10 mg/kg/day mini-infusion): 4.55 μg/ml ±
Compound 1 blood plasma level (day 27) ([4]; 10 mg/kg/day mini-infusion): 6.72 μg/ml ±
Surviving animals ([4]; 10 mg/kg/day mini-infusion): 100%
Body weight increase ([4]; 10 mg/kg/day p.o.): +27%
Surviving animals ([4]; 10 mg/kg/day p.o.): 100%
Compound 1 blood plasma level (day 27) ([4]; 10 mg/kg/day p.o., 4 hours after oral administration): 34.35 μg/ml and 34.35 μg/ μg/ml
Surviving animals ([4]; 25 mg/kg/day mini-infusion): 17%
blood plasma levels, extrapolated from the values at lower doses ([4]; 25 mg/kg/day mini-infusion pump): ≤ 15000 ng/mL
Body weight increase ([4]; 25 mg/kg/day mini-infusion, determined in one surviving animal only): +13%*
survival ([4]; 25 mg/kg/day orally administered): all animals
Body weight increase ([4]; 25 mg/kg/day p.o.): −2%
Surviving animals ([4]; 25 mg/kg/day p.o.): 100%
